Measured values as given in patent US8999984B2, “Macrophage migration inhibitory factor antagonists and methods of using same” (University of Louisville Research Foundation, Inc., priority 2006, dated 2015).
d = 2'-deoxy (DNA); r = 2'-OH (RNA)

Key:
recombinant MIF (rMIF) = biological target: T1, recombinant MIF (rMIF) (Homo sapiens, UniProt P14174); test: L-dopachrome methyl ester tautomerase assay; type: biochemical
T1 construct: made in house
T1 sequence (P14174 2-115 limits assumed): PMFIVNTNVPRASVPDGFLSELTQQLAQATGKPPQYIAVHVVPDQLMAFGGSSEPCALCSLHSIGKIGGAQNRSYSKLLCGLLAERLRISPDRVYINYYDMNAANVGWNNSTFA
Procedure: 500 nM recombinant MIF (rMIF) was pre-mixed for either 5 (filled) or 10 (open) minutes with the indicated inhibitor concentrations followed by the addition of 2 mM final concentration of L-dopachrome methyl ester substrate. 5 minutes later OD 475 was measured spectrophotometrically, with tautomerization leading to colorless substrate.
Dopachrome tautomerase assay. […] MIF catalysis and inhibitory studies can be performed as described (Lubetsky et al., 2002). […] Activity can be determined at room temperature by adding dopachrome methyl ester (0.3 ml) to a cuvette containing 500 nM rMIF (Bernhagen et al., 1994) in 50 mM potassium phosphate buffer, pH 6, 0.5 mM EDTA and 5 minutes later measuring the decrease in absorbance at 475 nm spectrophotometrically. […] Additionally, candidate inhibitors identified in the last section of the present Example can be dissolved in DMSO at various concentrations and added to the cuvette (final concentration of DMSO will be no more than 0.1%) with the MIF 1 minute prior to the addition of the dopachrome substrate.

HIF-1α [1] = test: CoCl2-induced HIF-1α stabilization in MIA-PaCa pancreatic adenocarcinoma cells (nuclear lysate immunoblot); type: cell-based, human; conditions: for suppression of HIF-1α, of control: 10 μM
Procedure: (§1) FIGS. 9A-9C are pictures of immunoblots showing MIF tautomerase inhibitors block HIF-1 stabilization in an MIF-specific manner. […] After 5 hours, nuclear lysates were isolated and subjected to immunoblotting for HIF-1. In FIGS. 9A and 9B, MIA-PaCa pancreatic adenocarcinoma cells were used. In FIG. 9C, MIF+/+ and MIF−/− mouse embryonic fibroblasts were evaluated.
As noted hereinabove, (see FIG. 4), it has been determined that MIF is necessary for hypoxia and prolyl hydroxylase inhibitor-induced HIF-1αstabilization and subsequent hypoxic adaptation of pancreatic adenocarcinoma cells. It was next tested whether MIF pharmacologic inhibitors were capable of recapitulating the destabilizing effects on HIF-1α we had observed using MIF siRNA (FIG. 4). In addition to testing the newly-determined MIF antagonist 4-iodo-6-phenylpyrimidine (also referred to as “compound #16”), the TI compound identified in the Orita screen (FIG. 8) was also tested.

VEGF = test: CoCl2-induced VEGF expression and secretion (ELISA); type: cell-based; conditions: read-out: suppression of PHD inhibitor (CoCl2) induced VEGF
Source text: It was next tested whether the observed differences in the catalytic inhibitory activities between these two compounds was similarly observed in this biological assay of MIF inhibition. […] Of note, this ˜5 fold difference in biological inhibitory activity closely corresponds to the ˜5 fold difference in enzymatic inhibitory activity that was observed when comparing these two compounds (FIG. 8).

MIF = MIF depletion by siRNA in MIA-Paca-2 cells (immunoblot); type: cell-based, human; conditions: FIG. 4A
Procedure: (§2) Nuclear and cytosolic extracts from MIF-depleted cells were exposed to normoxia, anoxia (FIG. 4A) or hypoxia (FIG. 4B) and immunoblotted for HIF-1α. FIG. 4C is a graph showing real time PCR analysis of VEGF mRNA levels from control and MIF-depleted cells exposed to hypoxia for different times.
(§3) MIF-specific siRNA was transfected into MIA-Paca-2 cells before being incubated in 0.2% O2 (anoxia) for 16 hours. […] To more thoroughly investigate the requirements for MIF in hypoxia-mediated HIF-1α stabilization, a time course evaluating MIF containing vs. deficient pancreatic adenocarcinoma cells exposed to 1% O2 (hypoxia) was performed.

HIF-1α [2] = test: Anoxia-induced HIF-1α stabilization in siRNA transfected MIA-Paca-2 cells; type: cell-based, human; conditions: 0.2% O2 (anoxia) 16 hours; FIG. 4A
Procedure: as §2, §3

A549 cells = test: A549 cell migration in collagen coated transwell chambers; type: cell-based, human; conditions: FIG. 10B
Procedure: In FIG. 10A, 500 nM rMIF was pre-mixed for 30 seconds with the indicated inhibitor concentrations followed by the addition of 2 mM final concentration of L-dopachrome methyl ester substrate. 5 minutes later OD 475 was measured spectrophotometrically (tautomerization leads to colorless substrate) and resulting data graphed. In FIG. 10B, 2×10^5 A549 cells transfected or pre-incubated with the indicated inhibitor or DMSO were added to the upper chamber of collagen coated transwell chambers. 16 hours later cells in the upper chamber were removed by swabbing and the bottom of the membranes were stained with crystal violet, solubilized, read at OD 570, and resulting data graphed.

[3] = tested on: A549 human lung adenocarcinoma cells; test: A549 anchorage-independent growth in soft agar; type: cell-based; conditions: FIG. 11; for inhibition of A549 soft agar growth: 10, 50 or 100 μM, 20 days
Procedure: FIG. 11 is a graph showing inhibitors of MIF prevent anchorage-independent growth. 10^5 A549 human lung adenocarcinoma cells were plated in soft agar, containing vehicle (0.1% DMSO) or 10, 50 or 100 μM ISO-1 or 4-iodo-6-phenylpyrimidine (CMPD 16). 20 days later, colonies were stained and enumerated. Data are representative of two independent experiments.

MIF/sCD74 = biological target: T2, MIF/sCD74 (Homo sapiens, UniProt P14174); test: MIF/MIF receptor (CD74) capture assay; type: binding; conditions: 0.1 μM antagonist against 0.2 μM biotinylated MIF (maximal inhibition possible 50%); FIG. 14B
T2 construct: made in house; host or cells: E. coli BL21 (DE3)pLysS (sCD74)
T2 sequence (P14174 2-115 limits assumed): T1 sequence (P14174 2-115 limits assumed)
Procedure: FIGS. 14A-14C are a schematic (FIG. 14C) of a MIF/MIF receptor capture assay and graphs of data collected from the assay (FIGS. 14A and 14B) that provides a tool for structure-function studies of MIF muteins and candidate inhibitors. […] FIG. 14A is a graph of data from the assay where CD74 coated plates were pre-incubated with the indicated concentrations of native MIF (MIF), denatured MIF or P1G MIF followed by the addition of 0.2 μM biotin-hrMIF. FIG. 14B is a graph of data from the assay where 1.0 μM of denatured MIF (dMIF), native MIF (MIF) or anti-CD74 were pre-incubated with soluble CD74 for 30 mins before adding 0.2 μM biotin-hrMIF. For inhibitors, 0.1 μM ISO-1 or 4-iodo-6-phenyl pyrimidine (Cmp16) were pre-incubated for 30 mins with 0.2 μM biotin-hrMIF before adding mixture to CD74 coated plate. In both FIGS. 14A and 14B, plates were developed 2 hours later by incubating Streptavidin-AP followed by PnPP and measurement at OD405.
As previously noted, the ability of small molecule antagonists to block MIFs biological functions requires the blockade of MIF binding to its cell surface receptor (Meyer-Siegler et al., 2006). […]
96 well plates can be coated with 60 μl/well of purified, soluble CD74 (CD74^73-232) at 0.1 mg/ml and incubated at 4° C. overnight. […] After washing, 60 μl/well of PNPP (Sigma) is added and allowed to develop in the dark until being read at 405 nm.

HIF-1α [4] = test: HIF-1α stabilization in MIF-containing and MIF-deficient mouse embryonic fibroblasts; type: cell-based; conditions: FIG. 9C
Procedure: as §1
Lastly, in order to verify that the effect of #16 on HIF-1α inhibition is through its inhibitory effects on MIF, MIF-containing cells and MIF-deficient cells were tested for inhibitory activity.

[5] = tested on: A549 human lung adenocarcinoma cells; test: A549 NSCLC xenograft tumor outgrowth; type: in vivo, Balb/c (nu/nu) mice; conditions: 2 mg intraperitoneally every day; vehicle mice developed lesions beginning at day 16; FIG. 12
Procedure: FIG. 12 is a graph showing Inhibition of NSCLC tumor growth by the MIF inhibitor 4-iodo-6-phenylpyrimidine. Balb/c (nu/nu mice were injected with 1×10^6 A549 human lung adenocarcinoma cells subcutaneously (4 mice/group). Vehicle or 4-iodo-6-phenylpyrimidine (Cmpd 16; 2 mg) were injected intraperitoneally every day for the course of the study. Tumor growth was monitored by palpation every fourth day as indicated. Results are expressed as percent of tumor free mice/group.
In a study designed to evaluate the in vivo efficacy of anti-MIF compounds, 4-iodo-6-phenylpyrimidine (compound #16) was tested in a xenograft model of human non-small cell lung cancer (NSCLC) outgrowth.

[6] = MTD / toxicity study, daily injections for 7 days; type: in vivo; conditions: daily injections for 7 days of 0.5, 1, 2 and 4 mg (25, 50, 100 and 200 mg/kg)
Source text: (§4) A study to determine the MTD and in vivo inhibitory activity of compound #16 was also completed. […] In vivo enzyme inhibition by compound #16 was next analyzed. […] Further, the discovery of the present MIF inhibitory compounds of Formula I disclosed herein by the present novel virtual screening and systematic testing methods validates the present approach and experimental design to identify further MIF small molecule inhibitors.

endogenous liver MIF = biological target: T3, endogenous liver MIF (Mus musculus, UniProt P34884); test: In vivo inhibition of liver MIF tautomerase activity; parameters: species or system C57BI/6 mice; conditions: single bolus injection 50 mg/kg, 6 hours post-injection, FIG. 13, read-out: inhibition of endogenous liver MIF enzyme tautomerase activity
T3 construct: from tissue; host or cells: mouse liver homogenate
Procedure: FIG. 13 is a graph showing the MIF inhibitor 4-iodo-6-phenyl pyrimidine inhibits MIF in vivo. C57BI/6 mice were injected with corn oil or 1 mg 4-iodo-6-phenyl pyrimidine (# 16) suspended in corn oil for 6 hours before removal of the livers. After homogenizing tissue, […] total liver protein was assessed for L-dopachrome methyl ester tautomerase activity.
as §4

HIF-1α [7] = test: Total HIF-1α ELISA, CoCl2-induced HIF stabilization; type: cell-based; conditions: Homo sapiens, compound #16 at 50 μM, read-out: inhibition of CoCl2-induced HIF stabilization, of control
Source text: Screening of HIF-1α de-stabilization by candidate MIF inhibitors. The presently disclosed discovery that MIF plays a central role in HIF stability was from studies done in pancreatic adenocarcinoma cell lines. […] This cell line can be utilized for large scale testing of candidate MIF antagonists. In order to scale up this in vitro screen, a DuoSet ELISA-based assay to detect total HIF-1α in human cell lysates can be utilized (R & D Systems). […] MIA-Paca-2 cells can be plated at 5×10^5 cells/well in 24 well plates for 16 hours. Media can be replaced with fresh media containing 0.1% DMSO (− control), 50 μM #16 (+ control) and 5, 50 μM concentrations of test inhibitor, all in duplicate wells. After 1 hour, cells can be challenged with 150 μM CoCl2 for an additional 6 hours. After rinsing the cells twice with PBS, supplied kit lysis buffer can be used to lyse the cells following manufacturer's directions. Prior coating and blocking of HIF-1α capture antibody can be performed according to instructions and diluted cell lysates can be assayed on the HIF-1α ELISA plates.

O=c1c(-c2ccc(O)c(O)c2)coc2cc(O)ccc12 [TI, 3′, 4′,7-tryhydroxyisoflavone, reference compound]
MIF inhibitory activity in applicant's assay compared with reported Ki (recombinant MIF (rMIF); TI from two commercial sources): several orders of magnitude weaker than claimed | suppression of HIF-1α, of control (HIF-1α [1]; FIG. 9B): no inhibitory activity | inhibition of HIF-1α stabilization (HIF-1α [1]; 50 μM, FIG. 9B): only slight inhibitory activity | inhibition at 50 µM (VEGF): ~20%

MIF siRNA: short interfering RNA (siRNA) oligos designed against human MIF; sense SEQ ID NO:3, antisense SEQ ID NO:4 (sense CCUUCUGGUGGGGAGAAAUTT; antisense AUUUCUCCCCACCAGAAGGTT; sugars from the 5' end r19 d2, backbone not given here)
loss of cytoplasmic MIF expression (MIF): greater than 90% | HIF-1α stabilization in nuclei after MIF depletion (HIF-1α [2]): completely deficient

COC(=O)CC1CC(c2ccc(O)cc2)=NO1 (stereo not shown) [ISO-1, S, R-3-(4-hydroxyphenyl)-4,5-dihydro-5-isoxazole acetic acid methyl ester, reference compound]
enzyme inhibition at 10 μM (recombinant MIF (rMIF); 10 μM, FIG. 10A): completely inactive | inhibition of CoCl2-induced HIF-1α stabilization (HIF-1α [1]; concentrations of 100 μM or higher): only moderately effective | migration inhibition at 10 μM (A549 cells): completely inactive | inhibition of A549 soft agar growth [3]: inhibit A549 soft agar growth | inhibition of MIF receptor (CD74) binding (MIF/sCD74): very efficient blocking

Ic1cc(-c2ccccc2)ncn1 [compound #16, 4-iodo-6-phenylpyrimidine]
IC50 (recombinant MIF (rMIF); 500 nM rMIF pre-mixed 5 or 10 min with inhibitor, 2 mM L-dopachrome methyl ester, FIG. 8, read-out: IC50, MIF enzyme (tautomerase) inhibition): ~5 µM | suppression of HIF-1α, of control (HIF-1α [1]; FIG. 9B): ~50% | inhibition of CoCl2-induced HIF-1α stabilization (HIF-1α [1]; 100 μM, pancreatic carcinoma cells, FIG. 9A): completely inhibited | difference in biological inhibitory activity (HIF-1α) between #16 and TI (HIF-1α [1]; 4-iodo-6-phenylpyrimidine versus TI): ~5 fold | inhibition at 50 µM (VEGF): > 80% | HIF-1α stabilization block in MIF-containing fibroblasts (HIF-1α [4]; MIF^+/− murine embryonic fibroblasts): potently blocks | HIF-1α stabilization in MIF-deficient fibroblasts (HIF-1α [4]; MIF^−/− fibroblasts): unaffected | inhibition of A549 soft agar growth [3]: inhibit A549 soft agar growth | potency relative to ISO-1, soft agar growth [3]: 5-10 fold | tumor outgrowth (tumor free mice) [5]: remained tumor free | toxicity [6]: no apparent toxicity | inhibition at 50 mg/kg (endogenous liver MIF): > 50% | inhibition of MIF receptor (CD74) binding (MIF/sCD74): 50% | inhibition at 50 µM (HIF-1α [7]): 75 to 90%
